Results: PMC3082957 (ACS chemical neuroscience, 2011)

How the values were obtained:
Assay type in all cases: cell-based
[1] = system: voltage-gated Na+ channels in CAD cells
[2] = system: voltage-gated Na+ channels in CAD cells; remark: listed apart in the source
[3] = system: voltage-gated Na+ channels in CAD cells; details: for fraction of channels in a slow-inactivated state (1 minus the normalized INa): at −50 mV
[4] = system: voltage-gated Na+ channels in CAD cells; details: 100 µM
[5] = system: voltage-gated Na+ channels in CAD cells; test: Rate of development of inhibition/slow inactivation of Na+ currents in CAD cells; details: 100 µM; vehicle 0.51 ± 0.08
[6] = system: voltage-gated Na+ channels in CAD cells; test: Frequency; details: 100 µM; 30 pulses at 10 Hz, holding −80 mV
[7] = 30 µM, UV irradiation, then washed 5 min

Row | Structure (SMILES) | block of Na+ current [1] | Na+ channels remaining in a slow-inactivated state [2, 7] | recovery of current amplitude at −10 mV compared with DMSO control or UV alone [2, 7] [%] | Na+ channels accumulated in the slow-inactivated state ([2]; 30 µM, photoactivated 365 nm 8 min then 312 nm 1 min) | Na+ channels in the slow-inactivated state ([2]; 30 µM, without light) [%] | changes in steady-state activation or fast inactivation ([2]; pre-drug, drug, UV and washout conditions, (R)-5 40 µM, (R)-6 40 µM, (R)-7 30 µM) | fraction of channels in a slow-inactivated state (1 minus the normalized INa) ([3]; 100 µM) | IC50 for slow inactivation, fold lower compared with (R)-1 ([3]; CAD cells, versus IC50 85 µM of (R)-1) [fold] | slope (k) of fast inactivation curve, shallower than DMSO-treated cells ([4]; p<0.05) | fraction of current available at 8 s prepulse duration [5] | reduction of peak inward Na+ current ([1]; 100 µM, CAD cells held at −80 mV, versus 0.1% DMSO) [%] | recovery of current amplitude at −10 mV after wash compared with pre-drug values ([2]; 100 µM, 10 min, 5-min wash) [%] | effect on slow inactivation following the 5-min wash ([2]; 100 µM, 10 min at 37 °C, then 5-min wash, −50 mV) | peak current lower than control by the last pulse [6] | slow inactivation observed at potentials more depolarized than ([3]; 100 µM) [mV] | fraction of Na+ current available at −50 mV ([3]; 100 µM, 5 s conditioning prepulse) [fractional units] | maximal fraction of current unavailable by depolarization ([3]; 100 µM, 20 mV as printed, control 0.62 ± 0.03) | V1/2 of steady-state fast inactivation ([4]; DMSO control −67.5 ± 1.0 mV, not different (p > 0.05)) [mV]
1 | NC1=N[C@H](O)[C@H]2[C@H]3O[C@]4(O)O[C@@H]([C@@H](O)[C@@]2(N1)[C@@H]4O)[C@]3(O)CO [tetrodotoxin] | almost all of the current was blocked |  |  |  |  |  |  |  |  |  |  |  |  |  |  |  |  | 
2 | COC[C@@H](NC(C)=O)C(=O)NCc1ccc(C2(C(F)(F)F)N=N2)cc1 [(R)-7] |  | about 10% | 87 | about 35% | 65 | no changes | 0.66 ± 0.05 | 7.1 | about 55% |  |  |  |  |  |  |  |  | 
3 | COC[C@@H](NC(C)=O)C(=O)NCc1ccccc1 [(R)-1, (R)-N-benzyl 2-acetamido-3-methoxypropionamide] |  |  |  |  |  |  | 0.65 ± 0.08 |  |  | 0.31 ± 0.01 | 40 | 74 | completely reversed | ~ 10% | > −80 | 0.35 ± 0.01 | 0.26 ± 0.01 | −69.5 ± 1.3
